Assay results as given in ChEMBL document CHEMBL5058649, “Data for DCP probe BAY 1816032” (2022).

Tests used:
[1] = target: Gamma-aminobutyric acid type B receptor subunit 1 (Homo sapiens) (UniProt Q9UBS5); assay: Inhibition of GABAB1A at compound concentration of 10.0 uM in the Eurofins-Panlabs radioligand binding assay (Eurofins_assay_228610); design: ligand concentration 4 nM; settings: Compound concentration 10.0 uM
hERG (KCNH2) = hERG (KCNH2) (Homo sapiens, UniProt Q12809); assay: Inhibition of Potassium Channel hERG at 10 µM in the Eurofins-Panlabs radioligand binding assay (Eurofins_assay_265900); design: ligand concentration 1.5 nM, non-specific ligand with concentration Astemizole, incubation time 60 min, incubation temperature 25 °C; settings: HEK-293 cells expressing human recombinant hERG, probe [3H] Astemizole, compound concentration 10 uM
[2] = target: voltage-gated sodium channel, site 2 (Rattus norvegicus, UniProt F1LQQ7+O08562+O88420+O88457+P04774+P04775+P08104+P15389+P15390+Q62968); assay: Inhibition of Sodium Channel, Site 2 at 10 µM in the Eurofins-Panlabs radioligand binding assay (Eurofins_assay_279510); assay type: protein assay; design: ligand concentration 5 nM, non-specific ligand with concentration 100 µM Veratridine, incubation time 60 min, incubation temperature 37 °C; settings: male, Wistar, rat whole brain (except cerebellum) membranes, probe [3H] Batrachotoxinin, compound concentration 10 uM
[3] = target: Tyrosine-protein kinase Lck (Homo sapiens) (UniProt P06239); assay: Inhibition of Protein Tyrosine Kinase, LCK at 10 µM in the Eurofins-Panlabs enzyme assay (Eurofins_assay_176020); settings: Compound concentration 10.0 uM
Sequence of Tyrosine-protein kinase Lck (Homo sapiens) (P06239 2-509 limits assumed): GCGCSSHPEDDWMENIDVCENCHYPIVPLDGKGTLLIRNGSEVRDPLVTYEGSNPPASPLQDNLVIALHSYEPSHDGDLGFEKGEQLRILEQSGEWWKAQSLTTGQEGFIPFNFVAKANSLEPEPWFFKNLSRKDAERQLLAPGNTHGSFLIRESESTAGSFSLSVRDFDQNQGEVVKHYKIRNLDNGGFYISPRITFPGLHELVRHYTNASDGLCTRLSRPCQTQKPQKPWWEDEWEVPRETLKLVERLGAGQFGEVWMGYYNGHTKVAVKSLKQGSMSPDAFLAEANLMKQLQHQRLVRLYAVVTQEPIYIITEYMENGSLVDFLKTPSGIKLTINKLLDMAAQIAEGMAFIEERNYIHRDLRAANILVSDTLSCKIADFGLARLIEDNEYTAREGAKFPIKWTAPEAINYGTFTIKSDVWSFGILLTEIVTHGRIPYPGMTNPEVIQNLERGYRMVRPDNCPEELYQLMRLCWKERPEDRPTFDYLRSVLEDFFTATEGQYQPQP

[4] = target: Melanocyte-stimulating hormone receptor (Homo sapiens) (UniProt Q01726); assay: Melanocortin MC1 Eurofins-Panlabs radioligand binding assay; settings: Compound concentration 10.0 uM
[5] = target: Epithelial discoidin domain-containing receptor 1 (Homo sapiens, UniProt Q08345); assay: DDR1 DiscoveRx kinase panel
Sequence of Epithelial discoidin domain-containing receptor 1 (Q08345 whole entry, the tested form may be a part): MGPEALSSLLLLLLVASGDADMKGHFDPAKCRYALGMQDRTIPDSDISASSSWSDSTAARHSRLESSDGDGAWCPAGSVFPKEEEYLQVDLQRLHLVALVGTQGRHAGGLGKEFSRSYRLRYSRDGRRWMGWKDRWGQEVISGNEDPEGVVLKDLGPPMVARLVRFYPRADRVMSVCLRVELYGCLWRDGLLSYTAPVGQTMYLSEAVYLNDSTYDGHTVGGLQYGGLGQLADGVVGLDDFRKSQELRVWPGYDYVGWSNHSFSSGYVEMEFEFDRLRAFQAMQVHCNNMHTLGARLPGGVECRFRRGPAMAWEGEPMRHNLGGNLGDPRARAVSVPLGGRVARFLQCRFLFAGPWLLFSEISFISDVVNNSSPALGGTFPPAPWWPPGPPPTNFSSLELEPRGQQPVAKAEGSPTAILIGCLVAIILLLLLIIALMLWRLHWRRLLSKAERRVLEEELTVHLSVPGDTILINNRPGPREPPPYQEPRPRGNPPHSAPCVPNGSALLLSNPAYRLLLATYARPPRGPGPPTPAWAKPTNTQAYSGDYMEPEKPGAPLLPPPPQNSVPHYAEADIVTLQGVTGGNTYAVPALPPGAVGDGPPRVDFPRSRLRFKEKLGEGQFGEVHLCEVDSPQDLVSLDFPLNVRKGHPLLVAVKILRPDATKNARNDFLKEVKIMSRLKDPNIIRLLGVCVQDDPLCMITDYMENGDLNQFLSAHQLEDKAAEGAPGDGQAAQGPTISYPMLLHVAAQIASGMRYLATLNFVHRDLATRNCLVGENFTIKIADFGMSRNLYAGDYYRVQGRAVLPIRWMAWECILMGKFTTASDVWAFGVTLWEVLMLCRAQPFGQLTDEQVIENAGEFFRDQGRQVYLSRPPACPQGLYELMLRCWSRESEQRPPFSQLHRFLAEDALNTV

[6] = target: Calcium/calmodulin-dependent protein kinase type 1 (Homo sapiens) (UniProt Q14012); assay: CAMK1 DiscoveRx kinase panel; settings: Compound concentration 1.0 uM
[7] = target: Mitogen-activated protein kinase kinase kinase 13 (Homo sapiens) (UniProt O43283); assay: LZK DiscoveRx kinase panel; settings: Compound concentration 1.0 uM
[8] = target: Phosphatidylinositol 3-kinase catalytic subunit type 3 (Homo sapiens) (UniProt Q8NEB9); assay: VPS34 DiscoveRx kinase panel; settings: Compound concentration 1.0 uM
[9] = target: Rhodopsin kinase GRK7 (Homo sapiens) (UniProt Q8WTQ7); assay: GRK7 DiscoveRx kinase panel; settings: Compound concentration 1.0 uM
[10] = target: Dual specificity mitogen-activated protein kinase kinase 5 (Homo sapiens) (UniProt Q13163); assay: MEK5 DiscoveRx kinase panel; settings: Compound concentration 1.0 uM
Sequence of Dual specificity mitogen-activated protein kinase kinase 5 (Homo sapiens) (Q13163 whole entry): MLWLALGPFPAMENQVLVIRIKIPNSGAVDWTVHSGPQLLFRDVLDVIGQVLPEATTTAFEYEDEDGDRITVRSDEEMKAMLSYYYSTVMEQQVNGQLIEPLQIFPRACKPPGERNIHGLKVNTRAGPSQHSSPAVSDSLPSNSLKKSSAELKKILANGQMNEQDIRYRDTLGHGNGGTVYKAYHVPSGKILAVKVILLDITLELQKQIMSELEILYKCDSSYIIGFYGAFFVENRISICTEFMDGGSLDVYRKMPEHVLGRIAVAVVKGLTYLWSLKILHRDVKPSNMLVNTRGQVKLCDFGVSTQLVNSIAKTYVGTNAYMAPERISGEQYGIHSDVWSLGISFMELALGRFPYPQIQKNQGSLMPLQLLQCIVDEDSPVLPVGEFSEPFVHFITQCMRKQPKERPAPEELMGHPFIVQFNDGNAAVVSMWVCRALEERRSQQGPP

[11] = target: Mitogen-activated protein kinase kinase kinase 10 (Homo sapiens) (UniProt Q02779); assay: MLK2 DiscoveRx kinase panel; settings: Compound concentration 1.0 uM
[12] = target: Platelet-derived growth factor receptor beta (Homo sapiens) (UniProt P09619); assay: PDGFRB DiscoveRx kinase panel; settings: Compound concentration 1.0 uM
[13] = target: Serine/threonine-protein kinase RIO1 (Homo sapiens) (UniProt Q9BRS2); assay: RIOK1 DiscoveRx kinase panel; settings: Compound concentration 1.0 uM
Sequence of Serine/threonine-protein kinase RIO1 (Homo sapiens) (Q9BRS2 whole entry): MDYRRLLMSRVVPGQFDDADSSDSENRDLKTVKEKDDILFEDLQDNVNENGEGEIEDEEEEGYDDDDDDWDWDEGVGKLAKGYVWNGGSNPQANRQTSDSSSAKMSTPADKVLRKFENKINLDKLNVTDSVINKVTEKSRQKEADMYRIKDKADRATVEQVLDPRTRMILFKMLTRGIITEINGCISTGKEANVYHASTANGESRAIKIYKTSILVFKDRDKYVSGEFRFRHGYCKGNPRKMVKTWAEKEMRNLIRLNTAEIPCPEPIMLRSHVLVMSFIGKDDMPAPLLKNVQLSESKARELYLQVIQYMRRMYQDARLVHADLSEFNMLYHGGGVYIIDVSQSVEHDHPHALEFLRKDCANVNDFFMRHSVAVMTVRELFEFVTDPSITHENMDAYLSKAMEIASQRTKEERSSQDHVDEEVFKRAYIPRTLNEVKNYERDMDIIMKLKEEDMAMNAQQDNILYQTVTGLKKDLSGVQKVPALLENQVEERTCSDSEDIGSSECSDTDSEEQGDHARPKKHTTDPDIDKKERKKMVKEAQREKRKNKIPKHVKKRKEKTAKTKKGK

[14] = target: Maternal embryonic leucine zipper kinase (Homo sapiens) (UniProt Q14680); assay: MELK DiscoveRx kinase panel; settings: Compound concentration 1.0 uM
[15] = target: Serine/threonine-protein kinase WNK1 (Homo sapiens) (UniProt Q9H4A3); assay: WNK1 DiscoveRx kinase panel; settings: Compound concentration 1.0 uM
[16] = target: SRSF protein kinase 1 (Homo sapiens) (UniProt Q96SB4); assay: SRPK1 DiscoveRx kinase panel; settings: Compound concentration 1.0 uM
[17] = target: Calcium/calmodulin-dependent protein kinase type 1B (Homo sapiens) (UniProt Q6P2M8); assay: CAMK1B DiscoveRx kinase panel; settings: Compound concentration 1.0 uM
[18] = target: Mitogen-activated protein kinase 4 (Homo sapiens) (UniProt P31152); assay: ERK4 DiscoveRx kinase panel; settings: Compound concentration 1.0 uM
[19] = target: Serine/threonine-protein kinase PRP4 homolog (Homo sapiens) (UniProt Q13523); assay: PRP4 DiscoveRx kinase panel; settings: Compound concentration 1.0 uM
[20] = target: Cyclin-dependent kinase 3 (Homo sapiens) (UniProt Q00526); assay: CDK3 DiscoveRx kinase panel; settings: Compound concentration 1.0 uM
[21] = target: RAC-gamma serine/threonine-protein kinase (Homo sapiens) (UniProt Q9Y243); assay: AKT3 DiscoveRx kinase panel; settings: Compound concentration 1.0 uM
[22] = target: Aurora kinase B (Homo sapiens) (UniProt Q96GD4); assay: AURKB DiscoveRx kinase panel; settings: Compound concentration 1.0 uM
[23] = target: CDK4/Cyclin D3 (Homo sapiens) (UniProt P11802+P30281); assay: CDK4-cyclinD3 DiscoveRx kinase panel; assay type: protein-complex assay; settings: Compound concentration 1.0 uM
[24] = target: Serine/threonine-protein kinase DCLK3 (Homo sapiens) (UniProt Q9C098); assay: DCAMKL3 DiscoveRx kinase panel; settings: Compound concentration 1.0 uM
[25] = target: Ephrin type-B receptor 1 (Homo sapiens) (UniProt P54762); assay: EPHB1 DiscoveRx kinase panel; settings: Compound concentration 1.0 uM
[26] = target: Ephrin type-B receptor 6 (Homo sapiens) (UniProt O15197); assay: EPHB6 DiscoveRx kinase panel; settings: Compound concentration 1.0 uM
[27] = target: Receptor tyrosine-protein kinase erbB-4 (Homo sapiens) (UniProt Q15303); assay: ERBB4 DiscoveRx kinase panel; settings: Compound concentration 1.0 uM
Sequence of Receptor tyrosine-protein kinase erbB-4 (Homo sapiens) (Q15303 whole entry): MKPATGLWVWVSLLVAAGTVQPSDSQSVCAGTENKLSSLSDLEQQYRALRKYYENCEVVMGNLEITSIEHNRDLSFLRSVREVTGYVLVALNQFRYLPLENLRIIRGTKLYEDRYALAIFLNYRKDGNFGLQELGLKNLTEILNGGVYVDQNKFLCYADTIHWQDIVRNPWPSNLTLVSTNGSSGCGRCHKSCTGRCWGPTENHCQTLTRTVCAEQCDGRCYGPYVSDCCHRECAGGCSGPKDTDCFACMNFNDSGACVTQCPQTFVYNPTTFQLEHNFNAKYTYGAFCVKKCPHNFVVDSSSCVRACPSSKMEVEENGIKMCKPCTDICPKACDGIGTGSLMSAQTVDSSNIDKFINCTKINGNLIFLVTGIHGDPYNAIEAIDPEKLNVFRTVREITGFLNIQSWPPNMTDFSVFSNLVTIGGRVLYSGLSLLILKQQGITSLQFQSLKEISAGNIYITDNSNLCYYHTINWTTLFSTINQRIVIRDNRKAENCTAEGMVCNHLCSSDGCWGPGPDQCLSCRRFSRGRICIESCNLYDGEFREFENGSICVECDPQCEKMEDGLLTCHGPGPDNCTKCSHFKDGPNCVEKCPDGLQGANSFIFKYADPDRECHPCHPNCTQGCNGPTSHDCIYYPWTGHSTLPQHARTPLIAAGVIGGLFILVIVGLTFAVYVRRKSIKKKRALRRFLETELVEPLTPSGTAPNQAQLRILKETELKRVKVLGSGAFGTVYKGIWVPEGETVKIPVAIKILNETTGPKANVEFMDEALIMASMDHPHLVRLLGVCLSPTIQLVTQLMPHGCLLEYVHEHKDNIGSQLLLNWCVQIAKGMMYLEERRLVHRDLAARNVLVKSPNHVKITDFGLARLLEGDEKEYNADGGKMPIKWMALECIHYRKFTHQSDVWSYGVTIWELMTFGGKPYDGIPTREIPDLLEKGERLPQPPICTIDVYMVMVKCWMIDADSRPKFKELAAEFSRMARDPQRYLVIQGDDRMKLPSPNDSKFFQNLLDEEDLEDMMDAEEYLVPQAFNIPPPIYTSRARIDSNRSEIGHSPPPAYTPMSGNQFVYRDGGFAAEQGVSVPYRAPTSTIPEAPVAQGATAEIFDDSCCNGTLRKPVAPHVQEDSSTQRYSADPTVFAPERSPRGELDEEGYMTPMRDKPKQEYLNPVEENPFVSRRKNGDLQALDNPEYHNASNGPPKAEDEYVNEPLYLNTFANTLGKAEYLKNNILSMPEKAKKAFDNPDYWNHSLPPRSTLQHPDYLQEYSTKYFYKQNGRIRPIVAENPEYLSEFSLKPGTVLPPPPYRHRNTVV

[28] = target: Beta-adrenergic receptor kinase 1 (Homo sapiens) (UniProt P25098); assay: GRK2 DiscoveRx kinase panel; settings: Compound concentration 1.0 uM
[29] = target: Tyrosine-protein kinase JAK2 (Homo sapiens) (UniProt O60674); assay: JAK2(JH1domain-catalytic) DiscoveRx kinase panel; settings: Compound concentration 1.0 uM
[30] = target: Tyrosine-protein kinase Lck (Homo sapiens) (UniProt P06239); assay: LCK DiscoveRx kinase panel; settings: Compound concentration 1.0 uM
[31] = target: Phosphatidylinositol 4-phosphate 3-kinase C2 domain-containing subunit beta (Homo sapiens) (UniProt O00750); assay: PIK3C2B DiscoveRx kinase panel; settings: Compound concentration 1.0 uM
[32] = target: Phosphatidylinositol 4-phosphate 5-kinase type-1 gamma (Homo sapiens) (UniProt O60331); assay: PIP5K1C DiscoveRx kinase panel; settings: Compound concentration 1.0 uM
Sequence of Phosphatidylinositol 4-phosphate 5-kinase type-1 gamma (Homo sapiens) (O60331 whole entry): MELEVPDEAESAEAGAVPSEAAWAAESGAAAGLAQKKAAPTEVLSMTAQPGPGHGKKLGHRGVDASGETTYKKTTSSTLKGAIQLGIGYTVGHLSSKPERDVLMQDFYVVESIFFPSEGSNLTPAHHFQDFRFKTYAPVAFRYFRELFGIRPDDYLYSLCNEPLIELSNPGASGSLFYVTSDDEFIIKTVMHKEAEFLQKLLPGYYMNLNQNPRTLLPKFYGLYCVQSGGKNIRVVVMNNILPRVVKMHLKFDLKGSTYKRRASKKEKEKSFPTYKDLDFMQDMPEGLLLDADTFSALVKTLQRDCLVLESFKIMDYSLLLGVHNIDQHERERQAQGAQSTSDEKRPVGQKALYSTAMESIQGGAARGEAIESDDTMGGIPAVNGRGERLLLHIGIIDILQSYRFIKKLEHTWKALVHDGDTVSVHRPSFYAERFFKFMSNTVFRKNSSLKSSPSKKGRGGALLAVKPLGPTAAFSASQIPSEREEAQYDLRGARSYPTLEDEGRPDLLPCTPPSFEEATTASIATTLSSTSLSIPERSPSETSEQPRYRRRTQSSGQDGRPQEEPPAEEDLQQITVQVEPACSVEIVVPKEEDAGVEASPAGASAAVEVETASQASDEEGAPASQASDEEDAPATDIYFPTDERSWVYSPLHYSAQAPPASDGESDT

[33] = target: Serine/threonine-protein kinase SIK3 (Homo sapiens) (UniProt Q9Y2K2); assay: QSK DiscoveRx kinase panel; settings: Compound concentration 1.0 uM
[34] = target: Proto-oncogene tyrosine-protein kinase ROS (Homo sapiens) (UniProt P08922); assay: ROS1 DiscoveRx kinase panel; settings: Compound concentration 1.0 uM
[35] = target: Serine/threonine-protein kinase 33 (Homo sapiens) (UniProt Q9BYT3); assay: STK33 DiscoveRx kinase panel; settings: Compound concentration 1.0 uM
[36] = target: Tyrosine-protein kinase SYK (Homo sapiens) (UniProt P43405); assay: SYK DiscoveRx kinase panel; settings: Compound concentration 1.0 uM
[37] = target: Mitogen-activated protein kinase kinase kinase 7 (Homo sapiens) (UniProt O43318); assay: TAK1 DiscoveRx kinase panel; settings: Compound concentration 1.0 uM
Sequence of Mitogen-activated protein kinase kinase kinase 7 (Homo sapiens) (O43318 whole entry): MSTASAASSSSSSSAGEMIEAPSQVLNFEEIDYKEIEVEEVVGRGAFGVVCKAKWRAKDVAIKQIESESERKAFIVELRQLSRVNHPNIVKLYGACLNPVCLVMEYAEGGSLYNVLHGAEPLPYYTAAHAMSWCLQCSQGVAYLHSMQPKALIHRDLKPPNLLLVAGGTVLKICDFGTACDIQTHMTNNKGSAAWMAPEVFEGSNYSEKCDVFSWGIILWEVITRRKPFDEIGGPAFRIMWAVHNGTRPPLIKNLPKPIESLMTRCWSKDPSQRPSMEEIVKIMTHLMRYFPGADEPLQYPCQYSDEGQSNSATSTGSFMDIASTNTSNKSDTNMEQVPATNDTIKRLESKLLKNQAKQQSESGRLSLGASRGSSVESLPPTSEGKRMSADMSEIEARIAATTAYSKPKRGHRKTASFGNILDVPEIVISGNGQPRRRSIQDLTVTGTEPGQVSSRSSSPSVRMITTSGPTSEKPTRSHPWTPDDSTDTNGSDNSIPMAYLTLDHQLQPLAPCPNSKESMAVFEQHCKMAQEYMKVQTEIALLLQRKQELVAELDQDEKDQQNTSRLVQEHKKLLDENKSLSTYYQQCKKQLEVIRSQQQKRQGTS

[38] = target: Serine/threonine-protein kinase TAO2 (Homo sapiens) (UniProt Q9UL54); assay: TAOK2 DiscoveRx kinase panel; settings: Compound concentration 1.0 uM
[39] = target: TRAF2 and NCK-interacting protein kinase (Homo sapiens) (UniProt Q9UKE5); assay: TNIK DiscoveRx kinase panel; settings: Compound concentration 1.0 uM
[40] = target: Serine/threonine-protein kinase ULK2 (Homo sapiens) (UniProt Q8IYT8); assay: ULK2 DiscoveRx kinase panel; settings: Compound concentration 1.0 uM
[41] = target: 5-hydroxytryptamine receptor 2A (Homo sapiens) (UniProt P28223); assay: Serotonin (5-Hydroxytryptamine) 5-HT2A Eurofins-Panlabs radioligand binding assay; settings: Compound concentration 10.0 uM
MDA-MB-453 = assay: MDA-MB-453 cell line Proliferation assay; assay type: functional, Homo sapiens; settings: time 4 day
HT1197 = assay: HT-1197 cell line Proliferation assay; assay type: functional, Homo sapiens; settings: time 4 day
[42] = target: D(4) dopamine receptor (Homo sapiens) (UniProt P21917); settings: Compound concentration 10.0 uM
[43] = target: Histamine H3 receptor (Homo sapiens) (UniProt Q9Y5N1); settings: Compound concentration 10.0 uM

Compound: COc1cnccc1Nc1nc(-c2nn(Cc3c(F)cc(OCCO)cc3F)c3ccccc23)ncc1OC
- inhibition [1]: -2%
- inhibition at 60 min, 10 µM (hERG (KCNH2)): 23% (not active)
- inhibition at 60 min, 10 µM [2]: 53%
- inhibition [3]: 6%
- inhibition [4]: 4%
- Kd [5]: 2300 nM
- residual activity ([5]; Compound concentration 1.0 uM): 21%
- residual activity [6]: 52%
- residual activity [7]: 53%
- residual activity [8]: 55%
- residual activity [9]: 60%
- residual activity [10]: 71%
- residual activity [11]: 76%
- residual activity [12]: 77%
- residual activity [13]: 79%
- residual activity [14]: 84%
- residual activity [15]: 85%
- residual activity [16]: 90%
- residual activity [17]: 95%
- residual activity [18]: 96%
- residual activity [19]: 96%
- residual activity [20]: 99%
- residual activity [21]: 100%
- residual activity [22]: 100%
- residual activity [23]: 100%
- residual activity [24]: 100%
- residual activity [25]: 100%
- residual activity [26]: 100%
- residual activity [27]: 100%
- residual activity [28]: 100%
- residual activity [29]: 100%
- residual activity [30]: 100%
- residual activity [31]: 100%
- residual activity [32]: 100%
- residual activity [33]: 100%
- residual activity [34]: 100%
- residual activity [35]: 100%
- residual activity [36]: 100%
- residual activity [37]: 100%
- residual activity [38]: 100%
- residual activity [39]: 100%
- residual activity [40]: 100%
- inhibition [41]: 22%
- Cell Proliferation IC50 (MDA-MB-453): 1200 nM
- Cell Proliferation IC50 (HT1197): 4900 nM
- inhibition [42]: 1.38%
- inhibition [43]: 21.3%
